Target: T1, recombinant human baculovirus-expressed GST-tagged FASN (Homo sapiens, UniProt P49327)
T1 construct: GST; host or cells: baculovirus expression system (insect cells implied)
Assay: FASN enzyme activity assay: fluorescence-based detection of CoA with CPM
Type: biochemical
Settings: 5 nM FASN, 150 μM NADPH, 10 μM acetyl-CoA, 25 μM malonyl-CoA, 90 minutes incubation
Summary of the method: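 IC50 values were fitted (variable-slope sigmoid) to percent inhibition from CPM fluorescence (390/530 nm) reporting free CoA after a 30 min labelling step. The reaction ran 90 min after malonyl-CoA (25 μM) addition, with 10 μM acetyl-CoA, 150 μM NADPH, 5 nM recombinant GST-FASN, 50 mM HEPES pH 7.5 and 0.5% DMSO.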

T1 sequence (P49327 whole entry): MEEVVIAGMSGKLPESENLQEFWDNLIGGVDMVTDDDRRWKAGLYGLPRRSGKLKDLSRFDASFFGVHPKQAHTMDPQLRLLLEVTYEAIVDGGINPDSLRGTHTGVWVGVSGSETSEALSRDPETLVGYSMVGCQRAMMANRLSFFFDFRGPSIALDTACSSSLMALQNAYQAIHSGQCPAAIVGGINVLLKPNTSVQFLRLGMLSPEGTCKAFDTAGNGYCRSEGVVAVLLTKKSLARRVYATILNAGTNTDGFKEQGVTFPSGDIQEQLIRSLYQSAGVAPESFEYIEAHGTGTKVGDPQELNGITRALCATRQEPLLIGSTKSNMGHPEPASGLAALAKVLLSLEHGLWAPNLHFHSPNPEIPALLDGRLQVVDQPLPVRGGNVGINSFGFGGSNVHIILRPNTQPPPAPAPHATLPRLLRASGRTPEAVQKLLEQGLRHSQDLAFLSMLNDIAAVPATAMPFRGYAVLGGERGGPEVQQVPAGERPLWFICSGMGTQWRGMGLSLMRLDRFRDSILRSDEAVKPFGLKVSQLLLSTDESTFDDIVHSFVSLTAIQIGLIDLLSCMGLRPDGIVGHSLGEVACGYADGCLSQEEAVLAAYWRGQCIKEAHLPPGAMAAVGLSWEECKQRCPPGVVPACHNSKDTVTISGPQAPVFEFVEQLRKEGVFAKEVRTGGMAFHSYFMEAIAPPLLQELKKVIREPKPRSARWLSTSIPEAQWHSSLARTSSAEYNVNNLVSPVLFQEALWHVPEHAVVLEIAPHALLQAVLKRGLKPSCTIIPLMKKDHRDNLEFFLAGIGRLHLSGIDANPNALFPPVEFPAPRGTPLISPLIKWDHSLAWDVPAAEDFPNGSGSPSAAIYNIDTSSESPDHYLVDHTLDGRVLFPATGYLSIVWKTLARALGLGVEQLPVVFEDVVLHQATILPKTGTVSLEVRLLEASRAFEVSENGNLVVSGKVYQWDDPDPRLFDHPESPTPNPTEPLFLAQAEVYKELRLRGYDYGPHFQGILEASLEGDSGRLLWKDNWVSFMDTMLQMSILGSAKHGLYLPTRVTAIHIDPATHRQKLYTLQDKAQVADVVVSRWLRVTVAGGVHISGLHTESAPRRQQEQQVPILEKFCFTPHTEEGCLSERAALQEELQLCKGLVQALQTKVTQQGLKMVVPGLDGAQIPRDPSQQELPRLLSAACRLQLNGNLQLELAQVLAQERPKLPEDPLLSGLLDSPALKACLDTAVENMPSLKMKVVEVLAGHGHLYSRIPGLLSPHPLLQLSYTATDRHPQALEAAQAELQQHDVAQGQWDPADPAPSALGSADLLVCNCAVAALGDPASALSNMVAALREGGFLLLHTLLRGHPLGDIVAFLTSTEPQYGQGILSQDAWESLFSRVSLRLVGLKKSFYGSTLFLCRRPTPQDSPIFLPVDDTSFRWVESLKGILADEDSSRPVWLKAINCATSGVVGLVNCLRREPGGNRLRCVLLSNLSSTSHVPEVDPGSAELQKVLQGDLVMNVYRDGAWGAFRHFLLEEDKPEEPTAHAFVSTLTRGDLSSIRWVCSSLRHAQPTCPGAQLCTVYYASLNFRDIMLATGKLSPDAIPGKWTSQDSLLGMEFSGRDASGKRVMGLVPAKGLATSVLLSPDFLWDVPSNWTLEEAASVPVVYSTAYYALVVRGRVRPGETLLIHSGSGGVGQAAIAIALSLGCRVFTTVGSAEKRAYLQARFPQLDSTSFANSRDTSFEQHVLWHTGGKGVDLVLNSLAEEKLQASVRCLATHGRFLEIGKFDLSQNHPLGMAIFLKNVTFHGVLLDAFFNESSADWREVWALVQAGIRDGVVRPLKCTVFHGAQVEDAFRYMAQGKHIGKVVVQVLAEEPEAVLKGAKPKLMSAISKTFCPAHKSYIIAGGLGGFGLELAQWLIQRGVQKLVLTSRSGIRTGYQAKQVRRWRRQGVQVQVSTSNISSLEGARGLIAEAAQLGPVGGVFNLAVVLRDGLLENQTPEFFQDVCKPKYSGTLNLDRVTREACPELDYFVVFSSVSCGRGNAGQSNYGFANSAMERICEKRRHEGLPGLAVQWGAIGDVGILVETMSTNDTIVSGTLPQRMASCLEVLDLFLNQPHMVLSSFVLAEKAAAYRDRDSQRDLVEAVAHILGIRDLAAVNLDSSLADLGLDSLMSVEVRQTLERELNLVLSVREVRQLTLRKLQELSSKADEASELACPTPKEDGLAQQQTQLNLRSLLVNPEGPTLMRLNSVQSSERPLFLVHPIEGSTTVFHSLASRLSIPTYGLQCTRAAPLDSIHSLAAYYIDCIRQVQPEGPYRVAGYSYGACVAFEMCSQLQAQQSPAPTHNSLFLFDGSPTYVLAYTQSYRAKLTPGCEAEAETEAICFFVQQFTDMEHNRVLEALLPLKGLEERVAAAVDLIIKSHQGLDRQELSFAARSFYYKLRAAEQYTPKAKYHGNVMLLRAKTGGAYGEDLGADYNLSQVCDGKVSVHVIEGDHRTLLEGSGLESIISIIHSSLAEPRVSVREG

IC50 | SMILES
100 to 999 nM | CCC(=O)N1CCC(C(=O)c2c(F)cc(-c3ccc4cnccc4c3)cc2F)CC1 [Example 138, 1-[4-(2,6-Difluoro-4-isoquinolin-6-yl-benzoyl)-piperidin-1-yl]-propan-1-one]
100 to 999 nM | CC(C)C(=O)N1CCC(C2(c3ccc(-c4cnc5ccccc5c4)cc3)OCCO2)CC1 [Example 140, 2-Methyl-1-{4-[2-(4-quinolin-3-yl-phenyl)-1,3-dioxolan-2-yl]-piperidin-1-yl}-propan-1-one]
100 to 999 nM | CCC(=O)N1CCC(C(=O)c2ccc(-c3ccc4cccnc4c3)cc2F)CC1 [Example 142, 1-[4-(2-Fluoro-4-quinolin-7-yl-benzoyl)-piperidin-1-yl]-propan-1-one]
1 to 99 nM | CCC(=O)N1CCC(C(=O)c2ccc(-c3cnc4ccccc4c3)cc2F)CC1 [Example 143, 1-[4-(2-Fluoro-4-quinolin-3-yl-benzoyl)piperidin-1-yl]propan-1-one]
1 to 99 nM | CCC(=O)N1CCC(F)(Cc2ccc(-c3ccc4cccnc4c3)cc2)CC1 [Example 163, 1-(4-fluoro-4-(4-(quinolin-7-yl)benzyl)piperidin-1-yl)propan-1-one]
100 to 999 nM | CCC(=O)N1CC=C(Cc2ccc(-c3ccc4cccnc4c3)cc2)CC1 [Example 164, 1-(4-(4-(quinolin-7-yl)benzyl)-5,6-dihydropyridin-1(2H)-yl)propan-1-one]
1 to 99 nM | CCC(=O)N1CCC(F)(Cc2ccc(-c3ccc4cnccc4c3)cc2)CC1 [Example 165, 1-(4-fluoro-4-(4-(isoquinolin-6-yl)benzyl)piperidin-1-yl)propan-1-one]
100 to 999 nM | CCC(=O)N1CCC(F)(Cc2ccc(-c3ccc4occc4c3)cc2)CC1 [Example 169, 1-(4-(4-(benzofuran-5-yl)benzyl)-4-fluoropiperidin-1-yl)propan-1-one]
100 to 999 nM | O=C(C1CC1)N1CC=C(Cc2ccc(-c3cnc4ccccc4c3)cc2)CC1 [Example 172, Cyclopropyl(4-(4-(quinolin-3-yl)benzyl)-5,6-dihydropyridin-1(2H)-yl)methanone]
1 to 99 nM | O=C(C1CC1)N1CCC(F)(Cc2ccc(-c3ccc4cnccc4c3)cc2)CC1 [Example 175, Cyclopropyl(4-fluoro-4-(4-(isoquinolin-6-yl)benzyl)piperidin-1-yl)methanone]
100 to 999 nM | O=C(C1CC1)N1CC=C(Cc2ccc(-c3ccc4cnccc4c3)cc2)CC1 [Example 176, Cyclopropyl(4-(4-(isoquinolin-6-yl)benzyl)-5,6-dihydropyridin-1(2H)-yl)methanone]
100 to 999 nM | O=C(C1CC1)N1CCC(F)(Cc2ccc(-c3ccc4occc4c3)cc2)CC1 [Example 179, (4-(4-(benzofuran-5-yl)benzyl)-4-fluoropiperidin-1-yl)(cyclopropyl)methanone]

Continued, compound first:

SMILES | IC50
CC(C)C(=O)N1CCC(C2(c3ccc(-c4ccc(CN(C)C)cc4)cc3)OCCO2)CC1 [Example 135, 1-{4-[2-(4′-Dimethylaminomethyl-biphenyl-4-yl)-1,3-dioxolan-2-yl]piperidin-1-yl}-2-methyl-propan-1-one] | 1000 to 10000 nM
CCC(=O)N1CCC(C2(c3ccc(-c4ccc(CN(C)C)cc4)cc3)OCCO2)CC1 [Example 136, 1-{4-[2-(4′-Dimethylaminomethyl-biphenyl-4-yl)-1,3-dioxolan-2-yl]-piperidin-1-yl}-propan-1-one] | 1000 to 10000 nM
CN(C)Cc1ccc(-c2ccc(C3(C4CCN(C(=O)C5CC5)CC4)OCCO3)cc2)cc1 [Example 137, Cyclopropyl-{4-[2-(4′-dimethylaminomethyl-biphenyl-4-yl)-1,3-dioxolan-2-yl]-piperidin-1-yl}-methanone] | 1000 to 10000 nM
CCC(=O)N1CCC(C2(c3ccc(-c4cnc5ccccc5c4)cc3)OCCO2)CC1 [Example 139, 1-{4-[2-(4-Quinolin-3-yl-phenyl)-1,3-dioxolan-2-yl]-piperidin-1-yl}-propan-1-one] | 1 to 99 nM
O=C(C1CC1)N1CCC(C2(c3ccc(-c4cnc5ccccc5c4)cc3)OCCO2)CC1 [Example 141, Cyclopropyl-(4-[2-(4-quinolin-3-yl-phenyl)-1,3-dioxolan-2-yl]-piperidin-1-yl)-methanone] | 100 to 999 nM
COC(=O)N1CCC(C(=O)c2ccc(-c3cnc4ccccc4c3)cc2F)CC1 [Example 144, 4-(2-Fluoro-4-quinolin-3-yl-benzoyl)piperidine-1-carboxylic Acid Methyl Ester] | 1000 to 10000 nM
O=C(N1CCC(O)(Cc2ccc(-c3cc4ccccc4cn3)cc2)CC1)N1CCCO1 [Example 145, (4-hydroxy-4-(4-(isoquinolin-3-yl)benzyl)piperidin-1-yl)(isoxazolidin-2-yl)methanone] | 1000 to 10000 nM
O=C([C@H]1CCCO1)N1CCC(O)(Cc2ccc(-c3cc4ccccc4cn3)cc2)CC1 [Example 146, [4-Hydroxy-4-(4-isoquinolin-3-yl-benzyl)-piperidin-1-yl]-(R)-tetrahydro-furan-2-yl-methanone] | 100 to 999 nM
CCC(=O)N1CCC(F)(Cc2ccc(-c3cnc4ccccc4c3)cc2)CC1 [Example 161, 1-(4-fluoro-4-(4-(quinolin-3-yl)benzyl)piperidin-1-yl)propan-1-one] | 1 to 99 nM
CCC(=O)N1CC=C(Cc2ccc(-c3cnc4ccccc4c3)cc2)CC1 [Example 162, 1-(4-(4-(quinolin-3-yl)benzyl)-5,6-dihydropyridin-1(2H)-yl)propan-1-one] | 1 to 99 nM
CCC(=O)N1CC=C(Cc2ccc(-c3ccc4cnccc4c3)cc2)CC1 [Example 166, 1-(4-(4-(isoquinolin-6-yl)benzyl)-5,6-dihydropyridin-1(2H)-yl)propan-1-one] | 100 to 999 nM
CCC(=O)N1CCC(F)(Cc2ccc(-c3cncc4ccccc34)cc2)CC1 [Example 167, 1-(4-fluoro-4-(4-(isoquinolin-4-yl)benzyl)piperidin-1-yl)propan-1-one] | 1 to 99 nM
CCC(=O)N1CC=C(Cc2ccc(-c3cncc4ccccc34)cc2)CC1 [Example 168, 1-(4-(4-(isoquinolin-4-yl)benzyl)-5,6-dihydropyridin-1(2H)-yl)propan-1-one] | 1000 to 10000 nM
CCC(=O)N1CC=C(Cc2ccc(-c3ccc4occc4c3)cc2)CC1 [Example 170, 1-(4-(4-(benzofuran-5-yl)benzyl)-5,6-dihydropyridin-1(2H)-yl)propan-1-one] | 1 to 99 nM
O=C(C1CC1)N1CCC(F)(Cc2ccc(-c3cnc4ccccc4c3)cc2)CC1 [Example 171, Cyclopropyl(4-fluoro-4-(4-(quinolin-3-yl)benzyl)piperidin-1-yl)methanone] | 1 to 99 nM
O=C(C1CC1)N1CCC(F)(Cc2ccc(-c3ccc4cccnc4c3)cc2)CC1 [Example 173, Cyclopropyl(4-fluoro-4-(4-(quinolin-7-yl)benzyl)piperidin-1-yl)methanone] | 100 to 999 nM
O=C(C1CC1)N1CC=C(Cc2ccc(-c3ccc4cccnc4c3)cc2)CC1 [Example 174] | 100 to 999 nM
O=C(C1CC1)N1CCC(F)(Cc2ccc(-c3cncc4ccccc34)cc2)CC1 [Example 177, Cyclopropyl(4-fluoro-4-(4-(isoquinolin-4-yl)benzyl)piperidin-1-yl)methanone] | 1 to 99 nM
O=C(C1CC1)N1CC=C(Cc2ccc(-c3cncc4ccccc34)cc2)CC1 [Example 178, Cyclopropyl(4-(4-(isoquinolin-4-yl)benzyl)-5,6-dihydropyridin-1(2H)-yl)methanone] | 100 to 999 nM

Source: patent US11878966B2, “Substituted 4-benzyl and 4-benzoyl piperidine derivates” (89BIO LTD, priority 2015, dated 2024)
